Where a name gives a salt, the structure may show the parent alone.
Columns and labels:
Candida albicans [1] = assay: Activity against vaginal candidosis in rats (lowest oral dose active at the 14th day after infection); format: in vivo, Female Wistar rats; parameters: lowest effective oral dose (vaginal candidosis in rats): unit not given here; conditions: oral once a day for two days, active at 14th day after infection; for lowest effective oral dose (vaginal candidosis in rats): Table I
Experimental: Experiment A: Activity of Compounds (I) Against Vaginal Candidosis in Rats
Female Wistar rats of ±100 g body weight were used. They were ovariectomized and hysterectomized and after three weeks of recovery, 100 μg of oestradiol undecylate in sesame oil was given subcutaneously once a week for 3 consecutive weeks. The thus induced pseudooestrus was controlled by microscopic examination of vaginal smears. Food and water were left available ad libitum.
The rats were infected intravaginally with 8.10^5 cells of Candida albicans, grown on Sabouraud broth for 48 hours at 37° C. and diluted with saline. The date of infection varied from day +25 to day +32 after surgical intervention, depending on the appearance of signs of induced pseudo-oestrus.
The drugs under investigation were administered orally once a day for two days starting from the day of infection. For each experiment there were placebo treated controls. The results were assessed by taking vaginal smears with sterile swabs on several days after infection. The swabs were put into Sabouraud broth in petri-dishes and incubated for 48 hours a 37° C. If no growth of Candida albicans occured, i.e., when the animals were negative at the end of the experiment, this was due to drug administration because it never happened in placebo treated controls.
The Tables I, II and III below give the lowest oral dose of the drug under investigation which was found active at the 14th day after infection.

Candida albicans [2] = assay: Activity against crop candidosis in turkeys (dose whereby crops of 50% of animals were completely negative); format: in vivo; conditions: medicated feed for 13 consecutive days
Experimental: Experiment B: Activity of Compounds (I) Against Crop Candidosis in Turkeys
Turkeys of 14 days old were infected in the crop with 4.10^6 Candida albicans cells, grown on Sabouraud broth for 48 hours at 37° C. and diluted with saline. The volume of the inoculum was 1 ml. The drug under investigation were premixed in 500 mg of lacton and thereafter admixed in 1000 g of meal without any additives. The concentration of the drug under investigation in the meal was expressed in mg/kg.
The animals were given the medicated feed for 13 consecutive days starting on the day of infection. At the end of the experiment all animals were sacrificed. At autopsy the crops were removed, emptied and grinded in an ultra-turrax mixer in 15 ml of sterile saline. Colony counting was done on Sabouraud agar and the results given in the Tables I, II and III represent the ED50, i.e., the dose of the drug whereby the crops of 50% of the animals were completely negative for Candida albicans.

| Structure (SMILES) | lowest effective oral dose (vaginal candidosis in rats) (Candida albicans [1]) | ED50 (crop candidosis in turkeys) (Candida albicans [2]; Table I) | other results |
| --- | --- | --- | --- |
| CNC(=S)Nc1ccc(OC[C@H]2CO[C@](Cn3ccnc3)(c3ccc(Cl)cc3Cl)O2)cc1 (relative stereo) [NHCSNHCH3, cis-N-{4-[2-(2,4-dichlorophenyl)-2-(1H-imidzol-1-yl-methyl)-1,3-dioxolan-4-ylmethoxy]-phenyl}-N'-methylthiourea] | 10 | 125 mg/kg of feed |  |
| CS(=O)(=O)N1CCN(c2ccc(OC[C@H]3CO[C@](Cn4cncn4)(c4ccc(Cl)cc4Cl)O3)cc2)CC1 (relative stereo) [SO2CH3] |  |  | minimal effective dose (Candida albicans [1]; Candida albicans, 336 h, Table II): 1.25 mg/kg; ED50 (crop candidosis in turkeys) (Candida albicans [2]; Table II): 31 mg/kg of feed |
| CN(C)c1ccc(OC[C@H]2CO[C@](Cn3ccnc3)(c3ccc(Cl)cc3Cl)O2)cc1 (relative stereo) [cis-4-[2-(2,4-dichlorophenyl)-2-(1H-imidazol-1-ylmethyl)-1,3-dioxolan-4-ylmethoxy]-N,N'-dimethylbenzenamine diethanedioate.hydrate] | 10 | 31 mg/kg of feed |  |
| CCCNC(=O)N1CCN(c2ccc(OC[C@H]3CO[C@](Cn4ccnc4)(c4ccc(Cl)cc4Cl)O3)cc2)CC1 (relative stereo) [cis-4-{4-[2-(2,4-dichlorophenyl)-2-(1H-imidazol-1-yl-methyl)-1,3-dioxolan-4-ylmethoxy]phenyl}-N-propyl-1-piperazinecarboxamide dihydrate] | 2.5 | 125 mg/kg of feed |  |
| CCOC(=O)N1CCN(c2ccc(OC[C@H]3CO[C@](Cn4ccnc4)(c4ccc(Cl)cc4Cl)O3)cc2)CC1 (relative stereo) [drawing 31] | 2.5 | 16 mg/kg of feed |  |
| CCN1CCN(c2ccc(OC[C@H]3CO[C@](Cn4ccnc4)(c4ccc(Cl)cc4Cl)O3)cc2)CC1 (relative stereo) [drawing 37] | 1.25 | 31 mg/kg of feed |  |
| CCOC(=O)N1CCN(c2ccc(OC[C@H]3CO[C@](Cn4ccnc4)(c4ccc(Cl)cc4Cl)O3)cc2)CC1 (relative stereo) [drawing 39, cis-ethyl 4-{4-[2-(2,4-dichlorophenyl)-2-(1H-imidazol-1-ylmethyl)-1,3-dioxolan-4-ylmethoxy]phenyl}-1-piperazinecarboxylate dihydrochloride hemihydrate] |  |  | lowest effective oral dose (vaginal candidosis in rats) (Candida albicans [1]; dihydrochloride hemihydrate): 10; ED50 (crop candidosis in turkeys) (Candida albicans [2]; Table I, dihydrochloride hemihydrate): 31 mg/kg of feed |
| Clc1ccc([C@@]2(Cn3ccnc3)OC[C@H](COc3ccc(N4CCN(Cc5ccccc5)CC4)cc3)O2)c(Cl)c1 (relative stereo) [drawing 46] | 2.5 | 31 mg/kg of feed |  |
| Clc1ccc([C@@]2(Cn3ccnc3)OC[C@H](COc3ccc(N4CCN(Cc5ccccc5)CC4)cc3)O2)c(Cl)c1 (relative stereo) [drawing 50] | 1.25 | 16 mg/kg of feed |  |

Source: patent publication US4223036A, “1-(1,3-Dioxolan-2-ylmethyl)-1H-1,2,4-triazoles” (Janssen Pharmaceutica N.V., priority 1979, dated 1980)
